The source of these data is US11583538B2, “Substituted pyrrolo[1,2-a]pyrazines and pyrrolo[1,2-a][1,4]diazepines as TREX1 inhibitors” (Venenum Biodesign, LLC, priority 2019, dated 2023).

The subject of one assay is MB49-Luc tumor. The assay can be described thus: MB49-Luc tumor bearing mice. The assay is classed as in vivo, C57BL/6 mice. As to conditions: 100 μg intra-tumoral Days 1, 3, 6, 9 plus 10 Gy radiation Day 0; by Day 20; vs vehicle alone, 10 Gy + vehicle, or Example 15B + vehicle. The source says: The efficacy of the TREX1 inhibitors of the present invention can also be measured in a variety of in vivo assays. Exemplary mammals that can provide models to test the effectiveness of the TREX1 inhibitors of the present invention as anticancer agents include, but are not limited to, mice. Models of tumor growth and other tumor measurements can be used to assess the effectiveness of the anticancer agents described in the current invention. Example F describes an in vivo model of tumor growth in C57BL/6 mice. Compounds of the present invention can be tested in this model for their ability to inhibit growth of tumors. Compounds of the present invention can be used in combinatorial strategies to maximizing the immunogenicity of radiation therapy (Vanpouille-Box (2017) Nature Commun. 8, 81658). […] Ten week old female C57BL/6 mice were purchased from Jackson Laboratory (www.jax.org). During the study, the care and use of animals was conducted in accordance with the regulations of the Association for Assessment and Accreditation of Laboratory 15 Animal Care (AAALAC). […] Tumors were measured in two dimensions using calipers. Tumor volumes were calculated using the formula: volume (mm3)=(length×width2)/2. […]

The test system of assay [1] is THP1 Dual cells, ISRE Lucia reporter gene, transfected with G3-YSD DNA. The assay can be described thus: Human Cellular EC50 Reporter Assay. The assay is classed as cell-based. To be noted: 72 h, serum-starved cells transfected with G3-YSD 10 ng/ml, three days. The source says:
Example E is a cell-based assay for TREX1 inhibitors using THP1 Dual™ cells (Invivogen), a human monocyte cell line that has stable integration of an Interferon Stimulated Response Element (ISRE) Lucia reporter gene. The Lucia gene encodes a secreted luciferase reporter protein, under the control of an ISG54 minimal promoter in conjunction with five IFN-stimulated response elements. Activation of the cGAS-STING pathway in THP1 Dual™ cells leads to enhanced luciferase secretion and increased luminescence.
A cell-based assay was established using THP1 Dual™ cells (InvivoGen), a human monocyte cell line that has stable integration of an Interferon Stimulated Response Element (ISRE) Lucia reporter gene. The Lucia gene encodes a secreted luciferase reporter protein, under the control of an ISG54 minimal promoter in conjunction with five IFN-stimulated response elements. Activation of the cGAS-STING pathway in these cells leads to enhanced luciferase secretion. Three days prior to the assay, cells were transferred to a T75 flask at a density of 3.0×10^5 cells/ml in 20 ml of serum-starved media (RPMI 1640 containing 1% Heat-Inactivated FBS, 1× Glutagro, 10 mM HEPES, 1 mM sodium pyruvate, 1×Pen/Strep, 100 μg/ml Normocin, 100 μg/ml Zeocin, 10 μg/ml Blasticidin). On the day of assay cells were collected by centrifugation, washed in 1×DPBS, and resuspended in the 1% serum media at 3.3×10^5 cells/ml. An aliquot of an aqueous solution of the DNA oligonucleotide G3-YSD (InvivoGen) at 1 mg/ml was diluted 100-fold into the transfection reagent LyoVec (InvivoGen) and incubated at ambient temperature for 50 min to allow complex formation. Test compounds in DMSO were transferred to a standard 96-well tissue culture plate via acoustic dispense of 0.54 μl per well. Serum-starved cells were batch transfected with complex at a final DNA concentration of 10 ng/ml for 60 min at ambient temperature before dispensing 180 ul (60,000 cells) per well into the assay plate. The assay plate was then incubated in a humidified chamber at 37° C. in 5% CO2 for three days. An aliquot of 10 μl was removed from each well to combine with 10 μl of the luciferase detection reagent, QUANTI-Luc™ Gold (InvivoGen) in a white 384-well plate. The luminescent signal was then read using an EnVision plate reader (Perkin Elmer). An EC50 for each compound was determined by plotting the signal as a function of log molar concentration and fitting to a four parameter logistic equation. (see Table 32).

A further assay addresses human TREX1 (Homo sapiens (Human), UniProt Q9NSU2). The assay can be described thus: TREX1 Exonuclease Assay. The assay is classed as biochemical. As to the method: For human TREX1, the nucleotide sequence of the gene construct was codon optimized for expression in the bacterial host. The sequence was incorporated into the pMAL-c5e vector (NEB) downstream of a solubility-promoting MBP (maltose binding protein) fusion partner. The fusion protein product was expressed in E. coli strain BL21 (DE3) (Millipore) and purified in a series of chromatographic steps. Initial steps were conducted using a dextrin sepharose affinity column followed by a Q-sepharose ion exchange column (both GE Healthcare). After the second column the MBP partner was removed by incubation with enterokinase (NEB). Further purification was carried out with the second application of a Q-sepharose column followed by a Superdex 75 (GE Healthcare) size exclusion column. Finally, a heparin sepharose column (GE Healthcare) was applied to remove contaminating nucleotides.
To evaluate the effect of compounds on TREX1 activity, test compounds were serially diluted (11-point, 3-fold) from 10 mM stock solutions and delivered to 384-well low-volume assay plates in 80 nL DMSO using an acoustic dispenser. Next, 4 μL of human TREX1 (0.5 nM), or murine TREX1 (1 nM), diluted in assay buffer (20 mM Tris pH 7.5, 5 mM MgCl2, 100 μg/mL BSA, 0.002% Triton X-100, 2 mM DTT), was added to the assay plate. After incubating for 30 minutes, 4 μL of labeled DNA oligonucleotide (500 nM) in assay buffer was added to initiate TREX1 exonuclease activity. The reaction was allowed to proceed for 45 minutes at room temperature prior to the addition of 4 μL of 150 mM EDTA to halt TREX1 activity.

As a reminder, the EC50 is the midpoint of the concentration-response curve. As usually defined, the IC50 is the concentration that inhibits the measured activity by half. Low readings indicate higher potency, high ones lower potency.

Sequence of human TREX1 (Q9NSU2 whole entry, the tested form may be a part): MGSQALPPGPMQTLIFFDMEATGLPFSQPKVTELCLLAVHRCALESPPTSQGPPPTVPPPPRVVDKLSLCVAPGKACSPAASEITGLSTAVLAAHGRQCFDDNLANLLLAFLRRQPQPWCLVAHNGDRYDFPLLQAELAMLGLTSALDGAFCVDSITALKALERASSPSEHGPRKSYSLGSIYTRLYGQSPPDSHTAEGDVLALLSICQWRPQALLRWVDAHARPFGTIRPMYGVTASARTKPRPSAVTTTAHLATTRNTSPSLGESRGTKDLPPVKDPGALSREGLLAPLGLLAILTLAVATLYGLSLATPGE

Take `N[C@@H]1C[C@H]2C(=O)N([C@H](CCC(=O)O)C(=O)NCc3ccc(Cl)c(Cl)c3)CCC(CCc3ccccc3)N2C1` (stereo partly shown) [Example 15B]: in the assay with MB49-Luc tumor, the Tumor volume entry is on record as “reduced tumor volumes”.

Consider `N[C@@H]1C[C@H]2C(=O)N([C@H](CCC(=O)O)C(=O)NCc3ccc(Cl)c(Cl)c3F)CCC(CCc3ccccc3)N2C1` (stereo partly shown) [Example 30], for which the EC50 in assay [1] is 1000 to 10000 nM. Further, the IC50 on human TREX1 is less than 1000 nM. For `CC(C)Oc1c(CNC(=O)[C@@H](CCC(=O)O)N2CCC(CCc3ccccc3)N3C[C@H](N)C[C@H]3C2=O)ccc(Cl)c1Cl` (stereo partly shown) [Example 138] the same measures were less than 1000 nM and less than 1000 nM. In assay [1], `COc1c(CNC(=O)[C@@H](CCC(=O)O)N2CCC(CCc3ccccc3)N3C[C@H](N)C[C@H]3C2=O)ccc(Cl)c1Cl` (stereo partly shown) [Example 22] returned an EC50 of less than 1000 nM. The IC50 at human TREX1 is less than 1000 nM. As for `COc1c(CNC(=O)[C@@H](CCc2nnn[nH]2)N2CCC(CCc3ccccc3)N3C[C@H](N)C[C@H]3C2=O)ccc(Cl)c1Cl` (stereo partly shown) [Example 119], the EC50 in assay [1] is less than 1000 nM. The IC50 on human TREX1 is less than 1000 nM. In turn, `N[C@@H]1C[C@H]2C(=O)N([C@H](CCc3nnn[nH]3)C(=O)NCc3ccc(Cl)c(Cl)c3F)CCC(CCc3ccccc3)N2C1` (stereo partly shown) [Example 120] yielded an EC50 in assay [1] of 1000 to 10000 nM. The molecule further yielded an IC50 at human TREX1 of less than 1000 nM.

In assay [1], `CCOc1c(CNC(=O)[C@@H](CCC(=O)O)N2CCC(CCc3ccccc3)N3C[C@H](N)C[C@H]3C2=O)ccc(Cl)c1Cl` (stereo partly shown) [Example 137] showed an EC50 of less than 1000 nM. For the same molecule, the IC50 against human TREX1 is less than 1000 nM.
